According to PubChem BioAssay AID624433 (The Scripps Research Institute Molecular Screening Center, 2012):
Calls of active or inactive are those of the source.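 The calls were made as follows: active = compounds whose fitted IC50 falls under 25000 nM; inactive = the rest.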

These compounds were tested against Serine/threonine-protein phosphatase 5 (Homo sapiens) (UniProt P53041) (assay: PP5c phosphatase inhibition potency – biochemical, fluorescence, round 5, 3.8 nM low dose, dose response (AID 624433)). Conditions: purified PP5c, OMFP dephosphorylation.
Sequence of Serine/threonine-protein phosphatase 5 (Homo sapiens) (P53041 whole entry, looked up): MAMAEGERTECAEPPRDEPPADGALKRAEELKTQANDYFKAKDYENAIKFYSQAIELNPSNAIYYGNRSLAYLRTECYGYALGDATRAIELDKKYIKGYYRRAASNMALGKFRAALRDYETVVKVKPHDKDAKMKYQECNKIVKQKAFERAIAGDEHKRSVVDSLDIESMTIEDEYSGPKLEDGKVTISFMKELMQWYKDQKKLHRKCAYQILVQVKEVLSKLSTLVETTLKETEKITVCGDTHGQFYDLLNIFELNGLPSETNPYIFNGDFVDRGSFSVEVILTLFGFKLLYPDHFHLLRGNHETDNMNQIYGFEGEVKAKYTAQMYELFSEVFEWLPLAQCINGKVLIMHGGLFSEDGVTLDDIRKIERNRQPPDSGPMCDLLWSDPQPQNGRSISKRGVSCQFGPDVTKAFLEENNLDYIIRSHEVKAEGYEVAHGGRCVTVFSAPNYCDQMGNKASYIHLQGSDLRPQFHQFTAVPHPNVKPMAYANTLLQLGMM

IC50	SMILES
19.9 µM	CCc1ccccc1-c1n[nH]nc1C(=O)O
inactive	O=C(O)c1n[nH]nc1-c1ccccc1-c1ccccc1
2.86 µM	CC(C)Oc1ccccc1-c1n[nH]nc1C(=O)O
inactive	O=C(O)c1n[nH]nc1-c1ccccn1
inactive	CC(C)c1ccccc1-c1n[nH]nc1C(=O)O
16.1 µM	Cc1ccccc1-c1n[nH]nc1C(=O)O
3.62 µM	CCOc1ccccc1-c1n[nH]nc1C(=O)O
